In general, EC50 refers to the concentration that produces a half-maximal response. Low readings indicate higher potency in that assay, high ones lower potency in that assay. The IC50 is the concentration that inhibits the measured activity by half. Higher therefore signals weaker potency in that assay.

Where only a bound is given, the exact number is not on record here.

For test [1], the target named is T1, Metabotropic glutamate receptor 2 (Homo sapiens, UniProt Q14416). Kind of test: Effective concentration against Metabotropic glutamate receptor 2.
Test [2] addresses Metabotropic glutamate receptor 3 (Homo sapiens, UniProt Q14832). The experiment in a line: Effective concentration against human cloned Metabotropic glutamate receptor 3.
Test [3] addresses T1, Metabotropic glutamate receptor 2. The experiment in a line: Ability to displace [3H]LY-341,495 at glutamate-site on Metabotropic glutamate receptor 2; No significant displacement.

T1 sequence (Q14416 whole entry): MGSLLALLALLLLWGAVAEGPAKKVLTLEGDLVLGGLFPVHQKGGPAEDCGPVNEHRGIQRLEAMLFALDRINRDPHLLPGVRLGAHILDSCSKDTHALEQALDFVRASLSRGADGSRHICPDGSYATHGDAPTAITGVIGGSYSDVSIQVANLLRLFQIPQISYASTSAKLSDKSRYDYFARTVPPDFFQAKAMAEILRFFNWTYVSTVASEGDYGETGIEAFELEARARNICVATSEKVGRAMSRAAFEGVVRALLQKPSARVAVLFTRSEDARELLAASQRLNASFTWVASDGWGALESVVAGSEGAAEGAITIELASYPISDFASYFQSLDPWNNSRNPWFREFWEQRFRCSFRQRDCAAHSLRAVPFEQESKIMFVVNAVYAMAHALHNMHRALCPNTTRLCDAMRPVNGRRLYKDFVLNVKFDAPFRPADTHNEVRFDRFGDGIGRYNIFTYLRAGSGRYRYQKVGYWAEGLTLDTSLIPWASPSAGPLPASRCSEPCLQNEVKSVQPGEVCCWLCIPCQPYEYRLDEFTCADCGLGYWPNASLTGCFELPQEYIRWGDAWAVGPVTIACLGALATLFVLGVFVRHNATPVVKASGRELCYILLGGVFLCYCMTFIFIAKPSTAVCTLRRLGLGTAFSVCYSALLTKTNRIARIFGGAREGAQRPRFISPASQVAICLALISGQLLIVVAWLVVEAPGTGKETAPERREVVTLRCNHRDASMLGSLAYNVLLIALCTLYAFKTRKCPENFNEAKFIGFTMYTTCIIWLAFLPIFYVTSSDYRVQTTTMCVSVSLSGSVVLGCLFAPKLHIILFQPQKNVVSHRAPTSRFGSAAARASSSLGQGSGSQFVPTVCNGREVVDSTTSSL
Chain of Metabotropic glutamate receptor 3 (Q14832 whole entry): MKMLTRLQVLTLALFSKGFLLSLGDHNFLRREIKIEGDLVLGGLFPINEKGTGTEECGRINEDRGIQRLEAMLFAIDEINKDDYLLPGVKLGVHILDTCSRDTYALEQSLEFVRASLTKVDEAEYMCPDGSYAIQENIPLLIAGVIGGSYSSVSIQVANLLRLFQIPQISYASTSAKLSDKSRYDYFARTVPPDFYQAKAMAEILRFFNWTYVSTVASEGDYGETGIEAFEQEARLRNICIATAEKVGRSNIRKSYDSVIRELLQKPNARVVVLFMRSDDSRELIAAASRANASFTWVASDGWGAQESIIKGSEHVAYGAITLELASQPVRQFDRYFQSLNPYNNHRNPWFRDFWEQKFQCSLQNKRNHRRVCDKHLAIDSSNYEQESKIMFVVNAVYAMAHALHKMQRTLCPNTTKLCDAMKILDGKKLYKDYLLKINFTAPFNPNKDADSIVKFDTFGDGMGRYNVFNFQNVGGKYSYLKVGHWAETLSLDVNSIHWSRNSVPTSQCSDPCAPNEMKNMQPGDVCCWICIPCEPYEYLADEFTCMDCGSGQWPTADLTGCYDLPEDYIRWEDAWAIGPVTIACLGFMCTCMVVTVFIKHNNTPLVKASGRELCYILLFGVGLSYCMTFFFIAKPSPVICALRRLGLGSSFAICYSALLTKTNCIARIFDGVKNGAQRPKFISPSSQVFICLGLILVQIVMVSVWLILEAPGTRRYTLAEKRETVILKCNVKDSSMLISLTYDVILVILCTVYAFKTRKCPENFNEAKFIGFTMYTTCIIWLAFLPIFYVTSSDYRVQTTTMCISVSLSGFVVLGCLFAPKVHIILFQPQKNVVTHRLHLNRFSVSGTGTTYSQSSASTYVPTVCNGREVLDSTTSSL

In the case of `CCS(=O)(=O)N(Cc1cccnc1)c1ccc(Oc2ccccc2)cc1`, the results for the EC50 in test [1] and in test [2] were 1.5 µM and > 12.5 µM, respectively.
On to `COc1ccccc1Oc1ccc(N(Cc2cccnc2)S(=O)(=O)CC(F)(F)F)cc1`, for which the midpoint of the response in test [1], the EC50, lay at 0.27 µM. In test [3], the IC50 is > 100 µM.

For the origin of these results see ChEMBL document CHEMBL1145846, “Discovery of allosteric potentiators for the metabotropic glutamate 2 receptor: synthesis and subtype selectivity of N-(4-(2-methoxyphenoxy)phenyl)-N-(2,2,2- trifluoroethylsulfonyl)pyrid-3-ylmethylamine” (J Med Chem, 2003).
